Reference: ChEMBL document CHEMBL5614441, “Anticancer potential of active alkaloids and synthetic analogs derived from marine invertebrates” (Eur J Med Chem, 2024)

Key:
HCT-116 = experiment: Antiproliferative activity against human HCT116 cells assessed as inhibition of cell proliferation measured after 2 to 4 hrs incubation by MTT assay; type: functional, cell-based
MCF7 [1] = experiment: Cytotoxicity against human MCF7 cells assessed as cell killing by SRB colorimetric assay; type: functional, cell-based
MCF7 [2] = experiment: Cytotoxicity against human MCF7 cells assessed as cell viability measured after 48 hrs by MTT cell proliferation assay; type: functional, cell-based; settings: MCF7, 48 h
MDA-MB-231 [3] = experiment: Cytotoxicity against human MDA-MB-231 cells assessed as cell viability measured after 48 hrs by MTT assay; type: functional, cell-based; settings: MDA-MB-231, 48 h
MDA-MB-231 [4] = experiment: Cytotoxicity against human MDA-MB-231 cells measured after 24 to 72 hrs by MTT cell proliferation assay; type: functional, cell-based
CWR22R [5] = experiment: Cytotoxicity against human 22Rv1 cells assessed as cell viability measured after 48 hrs incubation by MTT assay; type: functional, cell-based; settings: 22Rv1, 48 h
BT-474 = experiment: Anticancer activity against human BT-474 cells assessed as cell viability measured after 48 hrs by MTT assay; type: functional, cell-based; settings: BT-474, 48 h
[6] = target: Hepatocyte growth factor receptor (Homo sapiens, UniProt P08581); experiment: Inhibition of c-Met phosphorylation in human BT-474 cells using Z-LYTE Tyr6 peptide substrate measured after 1 hr incubation by Z-LYTE c-Met Kinase assay; type: cell-based
Chain of Hepatocyte growth factor receptor (P08581 whole entry): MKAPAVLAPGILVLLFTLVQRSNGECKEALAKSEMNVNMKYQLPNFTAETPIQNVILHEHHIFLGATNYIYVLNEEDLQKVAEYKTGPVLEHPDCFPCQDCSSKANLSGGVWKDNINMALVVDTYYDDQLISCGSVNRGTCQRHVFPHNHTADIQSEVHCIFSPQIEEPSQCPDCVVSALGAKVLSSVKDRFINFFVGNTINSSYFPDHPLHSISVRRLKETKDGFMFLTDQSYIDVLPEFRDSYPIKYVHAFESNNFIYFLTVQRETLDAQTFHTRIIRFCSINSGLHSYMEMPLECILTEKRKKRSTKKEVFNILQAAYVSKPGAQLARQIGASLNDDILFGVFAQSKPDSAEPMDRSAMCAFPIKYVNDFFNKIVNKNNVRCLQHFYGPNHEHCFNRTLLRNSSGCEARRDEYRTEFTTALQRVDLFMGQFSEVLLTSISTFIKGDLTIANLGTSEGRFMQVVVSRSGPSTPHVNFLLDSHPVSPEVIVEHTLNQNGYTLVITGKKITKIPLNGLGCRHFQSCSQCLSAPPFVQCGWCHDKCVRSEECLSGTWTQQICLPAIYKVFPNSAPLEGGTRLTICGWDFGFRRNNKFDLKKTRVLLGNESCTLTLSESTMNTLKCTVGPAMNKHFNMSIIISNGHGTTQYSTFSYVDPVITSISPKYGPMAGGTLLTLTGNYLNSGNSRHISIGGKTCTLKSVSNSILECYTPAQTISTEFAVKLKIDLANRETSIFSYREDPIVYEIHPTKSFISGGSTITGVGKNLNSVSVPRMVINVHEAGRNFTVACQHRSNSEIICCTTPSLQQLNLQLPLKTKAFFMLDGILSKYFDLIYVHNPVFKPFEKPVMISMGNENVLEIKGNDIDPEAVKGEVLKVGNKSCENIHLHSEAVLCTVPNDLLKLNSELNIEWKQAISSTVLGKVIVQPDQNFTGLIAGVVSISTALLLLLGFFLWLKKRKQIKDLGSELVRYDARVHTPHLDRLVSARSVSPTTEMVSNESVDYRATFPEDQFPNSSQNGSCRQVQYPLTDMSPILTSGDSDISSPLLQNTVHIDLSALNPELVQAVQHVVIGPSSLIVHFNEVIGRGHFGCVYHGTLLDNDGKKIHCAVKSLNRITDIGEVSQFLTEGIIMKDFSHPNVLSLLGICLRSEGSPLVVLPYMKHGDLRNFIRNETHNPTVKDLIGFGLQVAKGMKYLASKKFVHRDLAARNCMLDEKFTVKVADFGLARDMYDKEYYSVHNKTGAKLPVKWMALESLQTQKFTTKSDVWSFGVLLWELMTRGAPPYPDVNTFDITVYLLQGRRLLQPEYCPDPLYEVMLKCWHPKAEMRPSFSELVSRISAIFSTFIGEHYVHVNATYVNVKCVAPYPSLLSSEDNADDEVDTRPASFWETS

[7] = Cytotoxicity against p53-/- transgenic mouse derived T11 cells assessed as cell viability measured after 48 hrs by Cell Titer Glo assay; type: functional, cell-based; settings: T11, 48 h
NCI-H460 = experiment: Cytotoxicity against human NCI-H460 cells; type: functional, cell-based
NCI-H292 = experiment: Cytotoxicity against human NCI-H292 cells; type: functional, cell-based
CWR22R [8] = experiment: Cytotoxicity against human 22Rv1 cells assessed as cell viability measured after 24 hrs incubation followed by incubated 3 hrs with MTS reagent by MTS assay; type: functional, cell-based
PC-3 [9] = experiment: Cytotoxicity against human PC-3 cells assessed as cell viability measured after 24 hrs incubation followed by incubated 3 hrs with MTS reagent by MTS assay; type: functional, cell-based
SW480 = experiment: Cytotoxicity against human SW480 cells assessed as cell growth measured after 24 hrs incubation by Sulforhodamine B (SRB) assay; type: functional, cell-based; settings: SW480, 24 h
SW-620 = experiment: Cytotoxicity against human SW620 cells assessed as cell growth measured after 24 hrs incubation by Sulforhodamine B (SRB) assay; type: functional, cell-based; settings: SW-620, 24 h
PC-3 [10] = experiment: Antiproliferative activity against human PC-3 cells assessed as inhibition of cell proliferation measured after 2 to 4 hrs incubation by MTT assay; type: functional, cell-based
DU-145 = experiment: Antiproliferative activity against human DU-145 cells assessed as inhibition of cell proliferation measured after 2 to 4 hrs incubation by MTT assay; type: functional, cell-based
A549 = experiment: Cytotoxicity against human A549 cells assessed as cell viability measured after 24 hrs incubation by MTT assay; type: functional, cell-based; settings: A549, 24 h
MDA-MB-231 [11] = experiment: Cytotoxicity against human MDA-MB-231 cells assessed as cell growth inhibition incubated for 72 hrs by alamarblue staining based assay; type: functional; settings: MDA-MB-231, 72 h

`CC[C@@H]1C=CCC[C@]2(C[C@H]3CC[C@@]4(O)[C@@H](C(=O)OCCCCCCCCCCCCCCCC(=O)N(CCCN)C[C@@H](O)CCN)[C@@]5(CCC[C@H](C)O5)N=C(N2)N34)O1` gave an IC50 (HCT-116) of 4.7 µM.

Work on `O=C(Cc1c[nH]c2ccccc12)N/N=C1\C(=O)Nc2ccc([N+](=O)[O-])cc21` yielded an IC50 (MCF7 [1]) of 0.44 µM.

With `CN1C(=O)/C(=N\NC(=O)Cc2c[nH]c3ccccc23)c2ccccc21` the IC50 (MCF7 [1]) was 1.28 µM.

`Cn1c2ccccc2c2cc(C3=NCCc4c3[nH]c3ccccc43)ccc21` gave an IC50 (MCF7 [2]) of 5.48 µM.

For `O=C1c2cccc(Cl)c2-[n+]2ccc3c([nH]c4ccccc43)c21`, the IC50 (MDA-MB-231 [3]) was 0.3 µM.

In the case of `COc1cc2ccnc3c2c(c1O)N(C)C=C3` [ISOAAPTAMINE], the IC50 (MDA-MB-231 [4]) is reported as 30.1 µM.

In the case of `CCC/C=C\CC[C@@H](O)C[C@H]1CCC2=C(C(=O)OCCCCN(O)C(=N)N)[C@H](CC/C=C\CCC)NC(=N)N21`, the IC50 (CWR22R [5]) is reported as 5 µM.

`[O-][N+]12CCC[C@]3(O)CCCCCC[C@H]4CCN5CCC[C@@H](CCCCCC[C@@H](CC1)O[C@@H]32)[C@@H]5O4` (some centres not stated) showed an IC50 (BT-474) of 15.2 µM and an IC50 [6] of 19.9 µM.

Compound `CC[C@H]1C=CCC[C@@]2(C[C@@H]3CC[C@@H]4[C@H](C(=O)OCCCCCCCCCCCCCCCC(=O)N(CCCN)C[C@@H](O)CCN)[C@]5(CCC[C@@H](C)O5)NC(=N2)N34)O1` has an IC50 [7] of 0.09 µM.

In the case of `CCC/C=C\CC[C@@H](O)C[C@H]1CCC2=C(C(=O)OCCCCN(O)C(=N)N)[C@H](CC/C=C\CCC)NC(N)=[N+]21`, the IC50 (CWR22R [5]) is reported as 5 µM.

Compound `C/C=C(/C)C(=O)OC[C@H]1c2c(O)c(OC)c(C)c(OC(=O)/C=C/c3ccccc3)c2C[C@H]2[C@H]3C4=C(C[C@@H]([C@H](C#N)N12)N3C)C(=O)C(C)=C(OC)C4=O` has an IC50 (NCI-H460) of 14.6 µM and an IC50 (NCI-H292) of 14.6 µM.

`O=C1c2ccc(Br)cc2-[n+]2ccc3c([nH]c4cc(Br)ccc43)c21` gave an IC50 (CWR22R [8]) of 0.69 µM and an IC50 (PC-3 [9]) of 7.28 µM.

Compound `Cn1ccc2c(c1=O)C(=O)c1nccc3c1c-2nc1ccccc13` [NEOAMPHIMIDINE] has an IC50 (SW480) of 0.006 µM and an IC50 (SW-620) of 0.06 µM.

`CC[C@@H]1CCCC[C@]2(C[C@H]3CC[C@@]4(O)[C@@H](C(=O)OCCCCCCCCCCCCCCCCC(=O)N(CCCN)C[C@@H](O)CCN)[C@@]5(CCC[C@H](C)O5)N=C(N2)N34)O1` gave an IC50 (HCT-116) of 4 µM.

Work on `COC1=C(Br)[C@H](O)[C@](O)(CC#N)C=C1Br` yielded an IC50 (PC-3 [10]) of 0.12 µM and an IC50 (DU-145) of 0.54 µM.

`C/C=C(/C)C(=O)OC[C@H]1c2c(c(O)c(C)c3c2OCO3)C[C@H]2[C@H]3C4=C(C[C@@H]([C@H](C#N)N12)N3C)C(=O)C(C)=C(OC)C4=O` gave an IC50 (A549) of 25 µM.

`N=C(N)NCCCCNC(=O)[C@@]1(O)[C@H](Cc2c[nH]c3cc(Br)ccc23)[C@@](O)(Cc2c[nH]c3cc(Br)ccc23)C(=O)N1CCCCNC(=N)N` [EUSYNSTYELAMIDE B] showed an IC50 (MDA-MB-231 [11]) of 5 µM.
